From US20100056606A1, “Combination therapy using budesonide and antisense oligonucleotide targeted to IL4-receptor alpha” (ISIS Pharmaceuticals, Inc., priority 2005, published 2010)

Tests used:
IL-4R alpha protein = IL-4R alpha protein in lung cells by flow cytometry, acute model; format: in vivo, mouse
Experimental: Dendritic cells, eosinophils, macrophages and epithelial cells recovered from collagenase digested lung were analyzed for expression of IL-4R alpha protein by flow cytometry. […] A second experiment, in which mice were dosed with 10 μg/kg ISIS 231894, confirmed the efficacy of ISIS 231894 to decrease AHR and eosinophilia in the acute model.

mouse IL-4R alpha RNA = assay: Antisense inhibition of mouse IL-4R alpha mRNA in b.END cells, real-time PCR; format: cell-based; details: 24 hours
Experimental: The mouse brain endothelial cell line b.END was obtained from Dr. Werner Risau at the Max Plank Institute (Bad Nauheim, Germany). b.END cells were routinely cultured in DMEM, high glucose (Invitrogen Life Technologies, Carlsbad, Calif.) supplemented with 10% fetal bovine serum (Invitrogen Life Technologies, Carlsbad, Calif.). Cells were routinely passaged by trypsinization and dilution when they reached approximately 90% confluence. Cells were seeded into 96-well plates (Falcon-Primaria #353872, BD Biosciences, Bedford, Mass.) at a density of approximately 3000 cells/well for use in oligomeric compound transfection experiments.
When cells reach appropriate confluency, they are treated with oligonucleotide using Lipofectin™ as described. When cells reached 65-75% confluency, they were treated with oligonucleotide. Oligonucleotide was mixed with LIPOFECTIN™ Invitrogen Life Technologies, Carlsbad, Calif.) in Opti-MEM™-1 reduced serum medium (Invitrogen Life Technologies, Carlsbad, Calif.) to achieve the desired concentration of oligonucleotide and a LIPOFECTIN™ concentration of 2.5 or 3 […] oligonucleotide. This transfection mixture was incubated at room temperature for approximately 0.5 hours. For cells grown in 96-well plates, wells were washed once with 100 μL OPTI-MEM™-1 and then treated with 130 μL of the transfection mixture. Cells grown in 24-well plates or other standard tissue culture plates are treated similarly, using appropriate volumes of medium and oligonucleotide. Cells are treated and data are obtained in duplicate or triplicate. After approximately 4-7 hours of treatment at 37° C., the medium containing the transfection mixture was replaced with fresh culture medium. Cells were harvested 16-24 hours after oligonucleotide treatment.
Quantitation of IL-4R alpha mRNA levels was accomplished by real-time quantitative PCR using the ABI PRISM™ 7600, 7700, or 7900 Sequence Detection System (PE-Applied Biosystems, Foster City, Calif.) according to manufacturer's instructions.
Prior to quantitative PCR analysis, primer-probe sets specific to the target gene being measured were evaluated for their ability to be “multiplexed” with a GAPDH amplification reaction. After isolation the RNA is subjected to sequential reverse transcriptase (RT) reaction and real-time PCR, both of which are performed in the same well. RT and PCR reagents were obtained from Invitrogen Life Technologies (Carlsbad, Calif.). […] The RT reaction was carried out by incubation for 30 minutes at 48° C. Following a 10 minute incubation at 95° C. to activate the PLATINUM® Taq, 40 cycles of a two-step PCR protocol were carried out: 95° C. for 15 seconds (denaturation) followed by 60° C. for 1.5 minutes (annealing/extension).
Gene target quantities obtained by RT, real-time PCR were normalized using either the expression level of GAPDH, a gene whose expression is constant, or by quantifying total RNA using RiboGreen™ (Molecular Probes, Inc. Eugene, Oreg.). GAPDH expression was quantified by RT, real-time PCR, by being run simultaneously with the target, multiplexing, or separately. Total RNA was quantified using RiboGreen™ RNA quantification reagent (Molecular Probes, Inc. Eugene, Oreg.).
Probes and primers for use in real-time PCR were designed to hybridize to target-specific sequences. The target-specific PCR probes have FAM covalently linked to the 5′ end and TAMRA or MGB covalently linked to the 3′ end, where FAM is the fluorescent dye and TAMRA or MGB is the quencher dye.
A series of oligomeric compounds was designed to target different regions of mouse IL-4R alpha RNA, using SEQ ID NO: 5. All compounds are chimeric oligonucleotides (“gapmers”) 20 nucleotides in length, composed of a central “gap” region consisting of ten 2′-deoxynucleotides, which is flanked on both sides (5′ and 3′) by five-nucleotide “wings”. The wings are composed of 2′-O-(2-methoxyethyl) nucleotides, also known as 2′-MOE nucleotides. […]

In the case of “ISIS 231894: lead antisense oligonucleotide targeted to mouse IL-4R alpha; CCGCTGTTCTCAGGTGACAT; SEQ ID NO: 24; 2'-MOE gapmer, phosphorothioate (all phosphorothioate, sugars by position and methylation of C not given here; 2'-MOE gapmer)”, the “IL-4R alpha protein in dendritic, epithelial and mixed eosinophil/macrophage lung cells, in words” value (IL-4R alpha protein) is reported as “significant reduction”, the “IL-4R alpha mRNA” value (mouse IL-4R alpha RNA; 1 nM) is reported as 100 % of untreated control and the “IL-4R alpha mRNA” value (mouse IL-4R alpha RNA; 5 nM) is reported as 55 % of untreated control. The “IL-4R alpha mRNA” value (mouse IL-4R alpha RNA; 10 nM) was 41 % of untreated control, the “IL-4R alpha mRNA” value (mouse IL-4R alpha RNA; 25 nM) was 35 % of untreated control and the “IL-4R alpha mRNA” value (mouse IL-4R alpha RNA; 50 nM) was 20 % of untreated control. For the same substance, the “IL-4R alpha mRNA” value (mouse IL-4R alpha RNA; 100 nM) was 20 % of untreated control and the “mouse IL-4R alpha mRNA reduction (in words)” value (mouse IL-4R alpha RNA; compared to mismatch control) was “dose-dependent mouse IL-4R alpha mRNA reduction”.
